Experimental data reported in patent US20250376466A1, “ESTER COMPOUNDS AND USE THEREOF” (NANJING REJU THERAPEUTICS, CO., LTD., priority 2022, published 2025).

Legend:
[1] = system: normal A549 cells, IMR90 cells, RPE cells, mouse chondrocytes, mouse skin fibroblasts; assay: Cell viability of normal cells (CellTiter-Glo); assay type: cell-based, human; conditions: 1 μM, 72 hours, FIGS. 2A to 2E
Description: (§1) In this example, human non-small cell lung cancer cell line (A549 cells), human embryonic lung fibroblast cell line (IMR90 cells), human retinal pigment epithelial cells (RPE cells), mouse chondrocytes, and mouse skin fibroblasts were selected. The cells above were induced to obtain senescent cells by etoposide (10 μM). The effect of the target compounds RZ001-RZ006 and RZ201 on the viability of normal and senescent cells above was detected, thereby evaluating the specific killing effect of the prodrugs RZ001-RZ006 and RZ201 on senescent cells above.
(§2) Briefly, senescent and normal cells above were selected and plated separately (96-well plates). After adding the compounds RZ001-RZ006 and RZ201 (concentration: 1 μM) for 72 hours, CellTiter-Glo® Luminescent Cell Viability Assay Kit (Promega) was used to detect cell viability, and the results were shown in FIGS. 2A to 2E.

[2] = system: normal and senescent A549 cells; assay: Senescent cell clearance index (senolytic index); assay type: cell-based, human; conditions: higher index = greater specificity
Description: as §1, §2
Furthermore, the senescent cell clearance index (senolytic index) was also calculated for both normal and senescent A549 cells, as shown in Table 4. A higher index indicates greater specificity in eliminating senescent cells and better safety.

[3] = system: senescent A549 cells, IMR90 cells, RPE cells, mouse chondrocytes, mouse skin fibroblasts; assay: Cell viability of senescent cells (CellTiter-Glo); assay type: cell-based, human; conditions: 1 μM, 72 hours; etoposide (10 μM)-induced senescent cells; FIGS. 2A to 2E
Description: as §1, §2

renal fibrosis = assay: Renal fibrosis animal model (ureter ligation); assay type: in vivo, mice; conditions: intraperitoneal (IP) injection from 2nd week of modelling; FIG. 11
Description: In this example, the efficacy of the compound of the present disclosure was tested on renal fibrosis in an animal model of renal fibrosis. Briefly, C57BL/6J mice, male, 7 to 8 weeks old, were used. The mice were anaesthetized, made to lie supine on a foam board, and disinfected with iodophor, and a longitudinal incision was made in the skin in the middle of the lower abdomen to locate the white line of the abdominal muscle, where the abdominal muscle, fascia and peritoneal layer were dissected. After exposing the surgical field, the kidneys were exposed by pushing the stomach and mesentery of the mice to the right side with a gauze soaked with saline. The model of renal fibrosis was constructed by locating the transparent ureter from the renal pelvis along the renal artery, separating the left ureter, ligating the upper ⅓ of the left ureter, suturing the incision layer by layer, and finally disinfecting with iodophor. Dosing via intraperitoneal injection was started from the 2nd week of modelling. At the end of the experiment, the mouse serum was collected and kidney tissues were taken for Masson staining index assay.

[4] = system: idiopathic pulmonary fibrosis; assay: Bleomycin idiopathic pulmonary fibrosis animal model; assay type: in vivo, SD rats; conditions: intraperitoneal (IP) 5 mg/kg, 3 consecutive weeks from day 7; Day 28; FIG. 6
Description: In this example, the efficacy of the compounds of the present disclosure was tested on idiopathic pulmonary fibrosis in an idiopathic pulmonary fibrosis animal model. Briefly, anesthetized 6-week-old SD rats were fixed on a foam board with medical tape. Firstly, the skin on the surface of the trachea was cut with surgical scissors to fully expose the trachea, and a 100-microlitre micro-syringe containing a certain volume of bleomycin (BLM 5 mg/kg) solution drawn based on the body weight of the rat was inserted into the trachea through the oral cavity to administer by slow bolus injection. After administration of the BLM solution, the foam plate was immediately rotated and shaken to distribute the BLM solution as evenly as possible in the lung tissue. Then the skin on the surface of the trachea was sutured with surgical sutures and about 0.5 to 1.0 mL of penicillin solution was dripped onto the epidermis to prevent infection of the surgical wound. After the 7th day of modelling, the compound solution of the present disclosure was administered via intraperitoneal (IP) injection (5 mg/kg) according to the weight of the rat for 3 consecutive weeks. Rats were euthanized by carbon dioxide at Day 28, the lung tissues were removed, the left alveolar lavage fluid was collected for white blood cell (WBC) counting, the right lung tissue portion was used for hydroxyproline (HYP) assay, and the remaining lung tissues were stained for pathology by H&E staining and Masson staining.

osteoarthritis = assay: Osteoarthritis animal model; assay type: in vivo, mice; conditions: intra-articular injection; FIG. 7
Description: In this example, the efficacy of the compounds of the present disclosure was tested on osteoarthritis in an osteoarthritis animal model.
The osteoarthritis animal model was constructed by the following steps. The mice were anesthetized with isoflurane, and fixed. The hair on the right hind limb of the mice was shaved and the skin was disinfected with alcohol, and the skin of the joints was cut. Under an optical microscope, the inside of the right knee joint was incised longitudinally with a blade, without cutting the patellar ligament. The patellar ligament was pulled to one side with constant hemostasis by compression with sterile cotton swabs such that the joint cavity was fully exposed. Saline was added dropwise in time to avoid the drying up of the joint cavity. The excess muscle tissue was gently separated with a blunt forceps to expose the meniscus ligament. The anterior cruciate ligament was found in the depth of the joint cavity and cut with micro scissor. Then the wound was disinfected with penicillin solution, the muscle was sutured with sterile needle and thread, and the skin tissue was finally sutured. The efficacy of the drug was determined by intra-articular injection administration. At the endpoint of the test, continued pain threshold of the plantar was detected, and the bone joints were stained with safranin fast green.

hepatic fibrosis = assay: CCl4 mouse model of hepatic fibrosis; assay type: in vivo, mice; conditions: intraperitoneal (IP) injection twice a week from third week of modelling; FIG. 9
Description: In this example, the efficacy of the compounds of the present disclosure was tested on hepatic fibrosis in an animal model of hepatic fibrosis. Briefly, C57BL/6N mice, male, 7 to 8 weeks old, 24 to 28 g of body weight, were used. The mouse model of hepatic fibrosis was induced by intraperitoneal injection of CCl4 solution at a dosage of 1 mL/kg, with a dosing frequency of 2 times/week, and a modelling cycle of 6 weeks. Dosing via intraperitoneal injection was started from the third week of modelling twice a week. At the end of the test, serum was collected, and liver tissue was taken for Masson staining index assay.

aging skin = assay: Aging skin in naturally aging mouse model; assay type: in vivo; conditions: skin application twice a week, 6 consecutive weeks; aged female mice (22 months old); FIG. 10
Description: In this example, aged female C57bl/6J mice (22 months old) were used. The drug was administered by skin application at twice a week for 6 consecutive weeks.

[5] = system: wet-age-related macular degeneration (CNV); assay: CNV animal model of wet age-related macular degeneration; assay type: in vivo, mice; conditions: intravitreal (IVT); laser CNV model; FIG. 5
Description: In this example, the efficacy of the compounds of the present disclosure was tested on wet-age-related macular degeneration in a CNV animal model.
Male mice were administered 0.5% probacaine hydrochloride (Alcon) for local anesthesia, and 1% tropicamide to dilate the pupils of the mice. Laser cauterization was performed using a laser photocoagulator (Novus Varia, LUMENIS) with a slit lamp delivery system. And artificially torn adherent glass coverslips were used as contact lenses. Bleeding spots caused by laser were not included in the statistical data.

diabetic retinopathy = assay: Mouse model of diabetic retinopathy (STZ), Evans blue penetration; assay type: in vivo; conditions: intravitreal (IVT), 1 μL of 200 μM at 8 and 9 weeks after STZ; Evans blue at 10 weeks; FIG. 4
Description: The efficacy of the compounds of the present disclosure was studied in a mouse model of diabetic retinopathy by multiple administrations of streptozotocin (STZ). C57BL/6J mice at 6 to 7 weeks were weighed and their baseline blood glucose was measured (Sino). STZ (Sigma-Aldrich) was injected intraperitoneally into the mice at 55 mg/Kg for five consecutive days. Age-matched controls were injected with buffer only. Blood glucose was measured again one week after the last STZ injection. 1 μL of the test compound (200 μM, a suspension formulated in 0.015% polysorbate 80, 0.2% sodium phosphate, 0.75% sodium chloride, pH 7.2) was injected intravitreally into the STZ-treated diabetic C57BL/6J mice at 8 and 9 weeks after STZ administration. 10 weeks after STZ treatment, the retinal Evans blue penetration assay was performed.

Alzheimer's disease = assay: APP×PS1 transgenic mouse model of Alzheimer's disease; assay type: in vivo; conditions: intraperitoneal injection, twice a week, 11 consecutive weeks; cerebral cortex; FIG. 8
Description: In this example, the efficacy of the compounds of the present disclosure was tested on Alzheimer's disease in an animal model of Alzheimer's disease. Briefly, a transgenic mouse model of APP×PS1 (purchased from Cyagen Biosciences) was selected and the compound of the present disclosure was administered by intraperitoneal injection for 11 consecutive weeks, twice a week. Alterations in amyloid in the cerebral cortex of the mice were observed.

## Cc1c(-c2ccc(N3CCc4cccc(C(=O)Nc5nc6ccccc6s5)c4C3)nc2C(=O)O)cnn1CC12CC3CC(CC(C3)C1)C2 [Compound A-1331852, reference compound]
[1]
  cytotoxicity against normal cells (cell viability): significant cytotoxicity against normal cells
[2]
  senescent cell clearance index (Senolytic Index): D (D represents 30 to 50)
[3]
  cytotoxicity against senescent cells (cell viability): killing senescent cells

## Cc1c(-c2ccc(N3CCc4cccc(C(=O)Nc5nc6ccccc6s5)c4C3)nc2C(=O)OCOC(=O)OC(C)C)cnn1CC12CC3CC(CC(C3)C1)C2 [RZ002]
Renal fibrosis
  pathology (kidney, Masson staining): statistically significant improvements
  serum creatinine (Cr) levels: statistically significant improvements
  serum urea nitrogen (BUN) levels: statistically significant improvements
[2]
  senescent cell clearance index (Senolytic Index): B (B represents 100 to 200)
[4]
  HYP (hydroxyproline, lung tissue): statistically significant improvements
  WBC (white blood cell count, alveolar lavage fluid): statistically significant improvements
  pathology scores (H&E and Masson staining, lung): statistically significant improvements
osteoarthritis
  pathology scores of safranin fast green staining: statistically significant improvements
  plantar mechanical pain threshold: statistically significant improvements
Hepatic fibrosis
  pathology scores (liver, Masson staining): statistically significant improvements
  serum alanine aminotransferase (ALT) levels: statistically significant improvements
  serum aspartate aminotransferase (AST) levels: statistically significant improvements
Aging skin
  epidermal thickness scores of the skin: statistically significant improvements
[5]
  fluorescence intensity indicators: statistically significant improvements
Diabetic retinopathy
  vascular permeability in both the retinal and choroidal vascular leakage: improved vascular permeability
Alzheimer's disease
  Aβ42 pathogenic protein indicators: statistically significant improvements

## Cc1c(-c2ccc(N3CCc4cccc(C(=O)Nc5nc6ccccc6s5)c4C3)nc2C(=O)OCOC(=O)C(C)(C)C)cnn1CC12CC3CC(CC(C3)C1)C2 [RZ003]
[2]
  senescent cell clearance index (Senolytic Index): B (B represents 100 to 200)

## CCCC(=O)OCOC(=O)c1nc(N2CCc3cccc(C(=O)Nc4nc5ccccc5s4)c3C2)ccc1-c1cnn(CC23CC4CC(CC(C4)C2)C3)c1C [RZ004]
[2]
  senescent cell clearance index (Senolytic Index): B (B represents 100 to 200)

## CC(=O)OCOC(=O)c1nc(N2CCc3cccc(C(=O)Nc4nc5ccccc5s4)c3C2)ccc1-c1cnn(CC23CC4CC(CC(C4)C2)C3)c1C [RZ005]
[2]
  senescent cell clearance index (Senolytic Index): B (B represents 100 to 200)

## CCOC(=O)OCOC(=O)c1nc(N2CCc3cccc(C(=O)Nc4nc5ccccc5s4)c3C2)ccc1-c1cnn(CC23CC4CC(CC(C4)C2)C3)c1C [RZ006]
[2]
  senescent cell clearance index (Senolytic Index): B (B represents 100 to 200)

## CCC(=O)OC(OC(=O)c1nc(N2CCc3cccc(C(=O)Nc4nc5ccccc5s4)c3C2)ccc1-c1cnn(CC23CC4CC(CC(C4)C2)C3)c1C)C(C)C (stereo not drawn) [RZ007]
[2]
  senescent cell clearance index (Senolytic Index): B (B represents 100 to 200)

## CCCCOC(=O)c1nc(N2CCc3cccc(C(=O)Nc4nc5ccccc5s4)c3C2)ccc1-c1cnn(CC23CC4CC(CC(C4)C2)C3)c1C [RZ008]
[2]
  senescent cell clearance index (Senolytic Index): F (F represents less than 10)

## Cc1c(-c2ccc(N3CCc4cccc(C(=O)Nc5nc6ccccc6s5)c4C3)nc2C(=O)OC(C)OC(=O)C(C)C)cnn1CC12CC3CC(CC(C3)C1)C2 (stereo not drawn) [RZ009]
[2]
  senescent cell clearance index (Senolytic Index): B (B represents 100 to 200)

## Cc1c(-c2ccc(N3CCc4cccc(C(=O)Nc5nc6ccccc6s5)c4C3)nc2C(=O)OC(C)OC(=O)OC(C)C)cnn1CC12CC3CC(CC(C3)C1)C2 (stereo not drawn) [RZ010]
[2]
  senescent cell clearance index (Senolytic Index): C (C represents 50 to 100)

## Cc1c(-c2ccc(N3CCc4cccc(C(=O)Nc5nc6ccccc6s5)c4C3)nc2C(=O)OCCN2CCOCC2)cnn1CC12CC3CC(CC(C3)C1)C2 [RZ011]
[2]
  senescent cell clearance index (Senolytic Index): F (F represents less than 10)

## CCOC(=O)c1nc(N2CCc3cccc(C(=O)Nc4nc5ccccc5s4)c3C2)ccc1-c1cnn(CC23CC4CC(CC(C4)C2)C3)c1C [RZ202]
[2]
  senescent cell clearance index (Senolytic Index): F (F represents less than 10)

## Cc1c(-c2ccc(N3CCc4cccc(C(=O)Nc5nc6ccccc6s5)c4C3)nc2C(=O)OCOC(=O)[C@@H](N)C(C)C)cnn1CC12CC3CC(CC(C3)C1)C2 [RZ301]
[2]
  senescent cell clearance index (Senolytic Index): B (B represents 100 to 200)
